Key:
[1] = molecular target: T1, Human Indoleamine 2,3-dioxygenase (IDO) (Homo sapiens, UniProt P14902); assay: Human IDO enzymatic assay (kynurenine level); assay type: biochemical; conditions: 6 nM IDO, 10 μM L-Trp; geometric mean; read-out: IDO1 GMean: IC50 (μM) (Biochemical Assay)
T1 construct: His tag (N); made in house; host or cells: E. coli
Method in brief: (§1)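 IDO conditions: 6 nM His-IDO, 10 μM L-Trp, 5 μM methylene blue, 20 min, RT. TDO conditions: 1 nM His-TDO, 350 μM L-Trp, 0.4 μM methylene blue, 70 min, RT. Both used pH 6.5 phosphate plus ascorbate/catalase, TCA stop at 50° C, kynurenine readout, nonlinear-regression IC50.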

[2] = molecular target: T2, human TDO (TDO-expressing HEK293 cells) (Homo sapiens, UniProt P48775); assay: Cell based kynurenine assay, TDO-expressing HEK293 cell clones; conditions: TDO-expressing HEK293 cells, 24 hours incubation; geometric mean; read-out: HEK293 TDO Kynurenine GMean IC50 (μM) (Cellular Assay)
T2 construct: expressed in transfected cells
Method in brief: (§2)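 Kynurenine in culture supernatant read after 24 h compound exposure of HEK293 cells stably expressing human IDO1 or TDO. IC50 from nonlinear regression of % inhibition relative to 0.2% DMSO cell (high) and media-only (low) controls.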

[3] = molecular target: T3, human IDO (IDO1-expressing HEK293 cells) (Homo sapiens, UniProt P14902); assay: Cell based kynurenine assay, IDO1-expressing HEK293 cell clones; conditions: IDO1-expressing HEK293 cells, 24 hours incubation; geometric mean; read-out: HEK293 IDO1 Kynurenine GMean IC50 (μM) (Cellular Assay)
T3 construct: expressed in transfected cells
Method in brief: as §2

[4] = molecular target: T4, Human Tryptophan 2,3-dioxygenase (TDO) (Homo sapiens, UniProt P48775); assay: Human TDO enzymatic assay (kynurenine level); assay type: biochemical; conditions: 1 nM TDO, 350 μM L-Trp; geometric mean; read-out: TDO GMean: IC50 (μM) (Biochemical Assay)
T4 construct: His tag (N); made in house; host or cells: E. coli
Method in brief: as §1

T3 sequence (P14902 whole entry): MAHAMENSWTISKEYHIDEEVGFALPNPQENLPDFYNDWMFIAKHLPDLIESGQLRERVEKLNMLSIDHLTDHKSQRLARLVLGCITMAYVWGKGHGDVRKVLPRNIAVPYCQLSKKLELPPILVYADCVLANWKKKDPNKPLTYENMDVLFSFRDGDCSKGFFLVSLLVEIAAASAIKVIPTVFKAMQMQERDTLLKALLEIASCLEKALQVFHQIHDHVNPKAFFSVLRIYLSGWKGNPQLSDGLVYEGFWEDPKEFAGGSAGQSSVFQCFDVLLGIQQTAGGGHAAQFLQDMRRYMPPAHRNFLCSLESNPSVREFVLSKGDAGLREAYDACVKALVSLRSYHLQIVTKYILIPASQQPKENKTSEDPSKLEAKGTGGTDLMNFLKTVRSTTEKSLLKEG
T1 sequence (P14902 whole entry): as above
T2 sequence (P48775 whole entry): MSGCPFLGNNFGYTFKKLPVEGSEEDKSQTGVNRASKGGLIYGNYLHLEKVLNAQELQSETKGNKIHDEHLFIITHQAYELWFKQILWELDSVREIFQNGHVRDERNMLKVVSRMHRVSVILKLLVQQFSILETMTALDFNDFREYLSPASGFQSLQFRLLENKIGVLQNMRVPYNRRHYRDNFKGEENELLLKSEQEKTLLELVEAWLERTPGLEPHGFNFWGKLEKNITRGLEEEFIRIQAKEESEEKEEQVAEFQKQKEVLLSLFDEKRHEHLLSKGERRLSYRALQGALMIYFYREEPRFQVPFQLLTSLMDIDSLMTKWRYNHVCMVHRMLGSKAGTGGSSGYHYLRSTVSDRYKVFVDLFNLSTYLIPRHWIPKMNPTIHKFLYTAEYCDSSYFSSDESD
T4 sequence (P48775 whole entry): as above

| Structure (SMILES) | IC50 [1] [µM] | IC50 [2] [µM] | IC50 [3] [µM] | IC50 [4] [µM] |
| --- | --- | --- | --- | --- |
| CC1(C)OC(C)(C)C12CC(O)(c1cc(Cl)cc3cn[nH]c13)C2 [Compound P-0243, 6-(5-chloro-1H-indazol-7-yl)-1,1,3,3-tetramethyl-2-oxaspiro[3.3]heptan-6-ol] | 0.0001 to 10 | 0.0001 to 10 | 0.0001 to 10 | 0.0001 to 10 |
| [2H]C(O)(c1cc(Cl)cc2cn[nH]c12)C(C)(C)C1CCOCC1 (stereo not drawn) [Compound P-0244, 1-(5-chloro-1H-indazol-7-yl)-2-methyl-2-(tetrahydro-2H-pyran-4-yl)propan-1-d-1-ol] | 0.0001 to 10 | 0.0001 to 10 | 0.0001 to 10 | 0.0001 to 10 |
| CC(C)(C)C(O)c1c(F)c(Cl)c(F)c2cn[nH]c12 (stereo not drawn) [Compound P-0248, 1-(5-chloro-4,6-difluoro-1H-indazol-7-yl)-2,2-dimethylpropan-1-ol] | 0.0001 to 10 | > 10 | 0.0001 to 10 | 0.0001 to 10 |
| OC1(c2c(F)c(Cl)c(F)c3cn[nH]c23)CC2(C1)C1CCCC2CCC1 (stereo not drawn) [Compound P-0249, (1s,5s)-3′-(5-chloro-4,6-difluoro-1H-indazol-7-yl)spiro[bicyclo[3.3.1]nonane-9,1′-cyclobutan]-3′-ol] | 0.0001 to 10 | > 10 | 0.0001 to 10 | 0.0001 to 10 |
| CC(C)(C(O)c1cc(Cl)cc2cn[nH]c12)C(F)(F)F (stereo not drawn) [Compound P-0250, 1-(5-chloro-1H-indazol-7-yl)-3,3,3-trifluoro-2,2-dimethylpropan-1-ol] | 0.0001 to 10 | 0.0001 to 10 | 0.0001 to 10 | 0.0001 to 10 |
| CC(C)(C1CCC1)C(O)c1c(F)c(Cl)c(F)c2cn[nH]c12 (stereo not drawn) [Compound P-0251, 1-(5-chloro-4,6-difluoro-1H-indazol-7-yl)-2-cyclobutyl-2-methylpropan-1-ol] | 0.0001 to 10 | 0.0001 to 10 | 0.0001 to 10 | 0.0001 to 10 |
| CC(C)(C1CCCC1)C(O)c1c(F)c(Cl)c(F)c2cn[nH]c12 (stereo not drawn) [Compound P-0252, 1-(5-chloro-4,6-difluoro-1H-indazol-7-yl)-2-cyclopentyl-2-methylpropan-1-ol] | 0.0001 to 10 | > 10 | 0.0001 to 10 | 0.0001 to 10 |
| CC(C)(CC1CCOCC1)C(O)c1cc(Cl)cc2cn[nH]c12 (stereo not drawn) [Compound P-0254, 1-(5-chloro-1H-indazol-7-yl)-2,2-dimethyl-3-(tetrahydro-2H-pyran-4-yl)propan-1-ol] | 0.0001 to 10 | 0.0001 to 10 | 0.0001 to 10 | 0.0001 to 10 |
| CCC(C)(CC)C(O)c1cc(Cl)cc2cn[nH]c12 (stereo not drawn) [Compound P-0255, 1-(5-chloro-1H-indazol-7-yl)-2-ethyl-2-methylbutan-1-ol] | 0.0001 to 10 | 0.0001 to 10 | 0.0001 to 10 | 0.0001 to 10 |
| CCC(CC)(CCC#N)C(O)c1cc(Cl)cc2cn[nH]c12 (stereo not drawn) [Compound P-0256, 4-((5-chloro-1H-indazol-7-yl)(hydroxy)methyl)-4-ethylhexanenitrile] | 0.0001 to 10 | 0.0001 to 10 | 0.0001 to 10 | 0.0001 to 10 |
| O=S(=O)(c1ccccc1)C1(C(O)c2cc(Cl)cc3cn[nH]c23)CC1 (stereo not drawn) [Compound P-0266, (5-chloro-1H-indazol-7-yl)(1-(phenylsulfonyl)cyclopropyl)methanol] | 0.0001 to 10 | > 10 | > 10 | 0.0001 to 10 |
| CCC(CC)(CC)C(O)c1cc(Cl)cc2cn[nH]c12 (stereo not drawn) [Compound P-0267, 1-(5-chloro-1H-indazol-7-yl)-2,2-diethylbutan-1-ol] | 0.0001 to 10 | 0.0001 to 10 | 0.0001 to 10 | 0.0001 to 10 |

The remaining lines, values ahead:

| IC50 [1] [µM] | IC50 [2] [µM] | IC50 [3] [µM] | IC50 [4] [µM] | Structure (SMILES) |
| --- | --- | --- | --- | --- |
| 0.0001 to 10 | 0.0001 to 10 | 0.0001 to 10 | 0.0001 to 10 | OC(c1c(F)c(Cl)cc2cn[nH]c12)C1(C2CCOCC2)CC1 (stereo not drawn) [Compound P-0235, (5-chloro-6-fluoro-1H-indazol-7-yl)(1-(tetrahydro-2H-pyran-4-yl)cyclopropyl)methanol] |
| 0.0001 to 10 | 0.0001 to 10 | 0.0001 to 10 | 0.0001 to 10 | CC1(C(O)c2cc(Cl)cc3cn[nH]c23)CCOCC1 (stereo not drawn) [Compound P-0236, (5-chloro-1H-indazol-7-yl)(4-methyltetrahydro-2H-pyran-4-yl)methanol] |
| 0.0001 to 10 | 0.0001 to 10 | 0.0001 to 10 | 0.0001 to 10 | OC(c1c(Cl)c(Cl)cc2cn[nH]c12)C1CCC1 (stereo not drawn) [Compound P-0237, cyclobutyl(5,6-dichloro-1H-indazol-7-yl)methanol] |
| 0.0001 to 10 | 0.0001 to 10 | 0.0001 to 10 | 0.0001 to 10 | OC(c1c(Cl)c(Cl)cc2cn[nH]c12)C1(C2CCCCC2)CC1 (stereo not drawn) [Compound P-0238, (1-cyclohexylcyclopropyl)(5,6-dichloro-1H-indazol-7-yl)methanol] |
| 0.0001 to 10 | 0.0001 to 10 | 0.0001 to 10 | 0.0001 to 10 | CC(C)(C)C(O)c1c(Cl)c(Cl)cc2cn[nH]c12 (stereo not drawn) [Compound P-0239, 1-(5,6-dichloro-1H-indazol-7-yl)-2,2-dimethylpropan-1-ol] |
| 0.0001 to 10 | 0.0001 to 10 | 0.0001 to 10 | 0.0001 to 10 | OC(c1cc(Cl)cc2cn[nH]c12)C1CC2CCC1C2 (stereo not drawn) [Compound P-0240, bicyclo[2.2.1]heptan-2-yl(5-chloro-1H-indazol-7-yl)methanol] |
| 0.0001 to 10 | 0.0001 to 10 | 0.0001 to 10 | 0.0001 to 10 | OC(c1c(F)c(Cl)c(F)c2cn[nH]c12)C1CCC1 (stereo not drawn) [Compound P-0246, (5-chloro-4,6-difluoro-1H-indazol-7-yl)(cyclobutyl)methanol] |
| 0.0001 to 10 | 0.0001 to 10 | 0.0001 to 10 | 0.0001 to 10 | OC(c1c(F)c(Cl)c(F)c2cn[nH]c12)C1(C2CCCCC2)CC1 (stereo not drawn) [Compound P-0247, (5-chloro-4,6-difluoro-1H-indazol-7-yl)(1-cyclohexylcyclopropyl)methanol] |
| 0.0001 to 10 | 0.0001 to 10 | 0.0001 to 10 | 0.0001 to 10 | CC(C)(C1CCCCC1)C(O)c1c(F)c(Cl)c(F)c2cn[nH]c12 (stereo not drawn) [Compound P-0253, 1-(5-chloro-4,6-difluoro-1H-indazol-7-yl)-2-cyclohexyl-2-methylpropan-1-ol] |
| 0.0001 to 10 | 0.0001 to 10 | 0.0001 to 10 | 0.0001 to 10 | OC(c1c(F)c(Cl)cc2cn[nH]c12)C12CC3CC(CC(C3)C1)C2 [Compound P-0257, ((1S,3s)-adamantan-1-yl)(5-chloro-6-fluoro-1H-indazol-7-yl)methanol] |
| 0.0001 to 10 | 0.0001 to 10 | 0.0001 to 10 | 0.0001 to 10 | OC(c1c(F)c(Cl)cc2cn[nH]c12)C1CC2CCC1C2 (stereo not drawn) [Compound P-0258, bicyclo[2.2.1]heptan-2-yl(5-chloro-6-fluoro-1H-indazol-7-yl)methanol] |
| 0.0001 to 10 | 0.0001 to 10 | 0.0001 to 10 | 0.0001 to 10 | CC(C1CC1)(C1CC1)C(O)c1cc(Cl)cc2cn[nH]c12 (stereo not drawn) [Compound P-0259, 1-(5-chloro-1H-indazol-7-yl)-2,2-dicyclopropylpropan-1-ol] |
| 0.0001 to 10 | 0.0001 to 10 | 0.0001 to 10 | 0.0001 to 10 | CC(C1CC1)(C1CC1)C(O)c1c(F)c(Cl)cc2cn[nH]c12 (stereo not drawn) [Compound P-0260, 1-(5-chloro-6-fluoro-1H-indazol-7-yl)-2,2-dicyclopropylpropan-1-ol] |
| 0.0001 to 10 | 0.0001 to 10 | 0.0001 to 10 | 0.0001 to 10 | CC(C)(C1CCN(S(C)(=O)=O)CC1)C(O)c1c(F)c(Cl)cc2cn[nH]c12 (stereo not drawn) [Compound P-0261, 1-(5-chloro-6-fluoro-1H-indazol-7-yl)-2-methyl-2-(1-(methylsulfonyl)piperidin-4-yl)propan-1-ol] |
| 0.0001 to 10 | 0.0001 to 10 | 0.0001 to 10 | 0.0001 to 10 | OC(c1c(F)c(Cl)cc2cn[nH]c12)C(F)(F)C1CCOCC1 (stereo not drawn) [Compound P-0262, 1-(5-chloro-6-fluoro-1H-indazol-7-yl)-2,2-difluoro-2-(tetrahydro-2H-pyran-4-yl)ethan-1-ol] |
| 0.0001 to 10 | 0.0001 to 10 | 0.0001 to 10 | 0.0001 to 10 | CC1(C(O)c2cc(Br)cc3cn[nH]c23)CCCCC1 (stereo not drawn) [Compound P-0263, (5-bromo-1H-indazol-7-yl)(1-methylcyclohexyl)methanol] |
| 0.0001 to 10 | > 10 | 0.0001 to 10 | 0.0001 to 10 | CC1(C(O)c2c(F)c(Cl)c(F)c3cn[nH]c23)CCC1 (stereo not drawn) [Compound P-0264, (5-chloro-4,6-difluoro-1H-indazol-7-yl)(1-methylcyclobutyl)methanol] |
| 0.0001 to 10 | 0.0001 to 10 | 0.0001 to 10 | 0.0001 to 10 | OC(c1c(F)c(Cl)c(F)c2cn[nH]c12)C1(C(F)(F)F)CCC1 (stereo not drawn) [Compound P-0265, (5-chloro-4,6-difluoro-1H-indazol-7-yl)(1-(trifluoromethyl)cyclobutyl)methanol] |
